One assay relates to acinar cells. The assay can be described thus: Oxygen consumption rate (OCR) of acinar cells, Seahorse. In kind it is cell-based, mouse. To be noted: etomoxir 40 μM. On the procedure: FIGS. 7A-7Q show Gnptab ablation causes mitochondrial dysfunction in the pancreas. Mitochondrial functional parameters were measured in mitochondria isolated from pancreas (A, D, J, and M) or liver (N-P), in acinar cells (B, C, and I), and pancreatic (E-H, K, and L) and liver (Q) tissues of WT and KO mice. (A and N) Activities of mitochondrial ETC complexes I, II, IV, and V. (B, C, and I) Acinar cell oxygen consumption rates (OCR), reflecting mitochondrial OXPHOS, were measured in basal conditions and after treatment with the B-oxidation inhibitor etomoxir (40 μM), and normalized to total protein in the sample. (B) Representative OCR tracings in acinar cell suspension subjected to consecutive injections of the ATP synthase inhibitor oligomycin (Oligo; 3 μM), protonophore FCCP (2.7 μM), and […] rotenone plus antimycin A (R+A, 5 μM each; to correct for nonmitochondrial respiration). (C and I) ATP-linked respiration was calculated as the difference between basal OCR and that in Oligo-treated cells; the maximal OCR was obtained in FCCP-treated cells. (D and O) Mitochondrial membrane potential (ΔΨm) was measured with a tetraphenyl phosphonium ion (TPP+) electrode. FCCP (5 μM) was added to completely dissipate ΔΨm. (E) ATP was measured in pancreatic tissue homogenate with luciferin-luciferase assay. […] (G) Mitochondrial fragmentation was assessed by changes in Tom20 or VDAC immunostaining pattern, from an interconnected tubular mitochondrial network in WT to a predominantly disjoined/circular one in KO pancreas. […] (K) Long-chain acylcarnitines were measured with LC-MS/GC-MS. […] Significance was determined by 2-tailed Student's t test.
Oxygen consumption rates (OCR) were measured in live acinar cells using Seahorse XFe96, as in (15). […] In all within-set experiments the same volume of cell suspension were used with the same amount of protein; and partial oxygen pressure was monitored to ensure its stability in the cell suspension.

The next assay relates to trypsin. The assay can be described thus: Trypsin activity in Gnptab−/− acinar cells. In kind it is cell-based, mouse. The note with it: 3 hours; 50 μM CA-074Me or 20 nM BafA1. The method, then: FIGS. 6A-6R show mechanisms mediating increased trypsin activity in Gnptab−/− pancreas. Trypsin activity and its regulation were analyzed in pancreatic (A, C, and D) tissue, (B and P-R) acinar cells, (E-H and O) lobules, and (I-N) subcellular fractions. In B, acinar cells were incubated for 3 hours without and with 20 nM BafAl or 50 μM CatB inhibitor CA-074Me; in P-R, with the cholesterol chelator methyl-β-cyclodextrin (MCD) at the indicated concentrations. In E-H, pancreatic lobules were double stained for TAP and LC3 or LAMP2; in O, for TAP and filipin. Quantitative colocalization analysis was done as detailed in FIG. 2. Each symbol in A, B, J-N, Q, and R represents an individual mouse or cell preparation (n=3-8 per condition). Each symbol in D, G, and H corresponds to 20 to 30 cells in a different field (n=9-20 fields from 3 WT and 3 KO mice or lobule preparations). Values are mean±SEM. **P<0.01, ***P<0.001 vs. WT tissue/lobules (A, G, and H) or corresponding WT subcellular fraction (K and M). ##P<0.01 vs. no inhibitors (B) or MCD (Q and R). ††P<0.01, †††P<0.001 vs. the other two fractions (L and N). Significance was determined by 2-tailed Student's t test (A, G, and H) or 1-way ANOVA followed by Tukey's multiple comparison test (B, K-N, Q, and R). Scale bars: 10 μm.
Activities of cathepsin (Cat) B and L, caspase-3, trypsin, and lysosomal acid lipase (LAL) were measured in pancreatic tissue or cell homogenates and subcellular fractions with fluorogenic assays using substrates specific for CatB (Z-Arg-Arg-AMC), CatL (Z-Phe-Arg-AMC), caspase-3-like ([…]), trypsin (Boc-Gln-Ala-Arg-AMC), as previously described (1-4, 6, 7); and for LAL (4-methylumbelliferyl oleate), as in (17). In measurements of CatL activity, the assay buffer also contained 50 μM CA-074me, a CatB inhibitor. LAL activity was measured in the absence and presence of the LAL inhibitor lalistat (100 μM) as the difference between these values (17).

For a further assay, the system named is pancreas. The assay can be described thus: Drug treatment of Gnptab−/− mice: pancreatic total cholesterol. In kind it is in vivo, mouse. On the procedure:
12-week-old Gnptab−/− mice were subjected to daily i.p. injections of 20 mg/kg simvastatin or the same dose of T0901317 for 4 or 21 days.
Total cholesterol content was measured with Cholesterol Assay kit per manufacturer's instructions. Samples of mouse pancreas and liver, cell pellet homogenates, subcellular fractions, isolated mitochondria, and serum were diluted in the reaction buffer containing cholesterol probe and incubated at 37° C. for 1 h in the dark. To measure total cholesterol, the samples were subjected to digestion with cholesterol esterase. To measure non-esterified cholesterol, the esterase was omitted from the assay.

The test system of assay [1] is cerulein pancreatitis (CER-AP). The assay can be described thus: Drug treatment of cerulein pancreatitis (CER-AP) in WT mice. The assay is classed as in vivo, mouse. On the procedure: FIGS. 10A-10N show deranged cholesterol metabolism causes acinar cell damage, while its normalization ameliorates experimental pancreatitis. (A-D) Cholesterol content and trypsin activity were measured (per mg protein) in WT mouse acinar cells incubated for 1 hour without and with methyl-β-cyclodextrin (MCD; 10 mM) or cholesterol-loaded MCD (MCD-Chol; 200 μg/mL), in the presence or absence of 100 nM CCK. Values are expressed relative to those in cells without MCD/MCD-Chol. (E-J) WT mice received daily i.p. injections of the LXR agonist T0901317 (T09), simvastatin (Sim; 20 mg/kg each), or vehicle. On day 4, mice were subjected to CER-AP and pancreata collected for analyses (see also FIG. 20). Cholesterol content (E), trypsin activity (F), and pancreas histopathology (H&E staining; G) were measured. (H, I, L, and N) IB analysis of markers/mediators of autophagy (LC3, p62), ER stress (CHOP, GRP-78), and mitophagy (Parkin). Ub, ubiquitylated proteins. (J) Mitochondrial fragmentation was assessed by immunostaining for Tom20, as detailed in FIG. 7G. (K and L) Mouse acinar cells were treated for 16 hours with LDL (30 μg/mL) or the combination of LDL and 10 μM U18666A. (M and N) Mice received injections of U18666A as detailed in FIG. 9B. Pancreas histopathology (H&E staining; M) and levels of autophagy markers/mediators (N) were measured. Each symbol in A-F and I represents an individual mouse or cell preparation. Values are mean±SEM from 3 to 7 mice or cell preparations per condition. ^§ P<0.05, ^§§ P<0.01 vs. control cells (without MCD/MCD-Chol). ***P<0.001 vs. saline-treated mice. ^#P<0.05, ^##P<0.01, ^###P<0.001 vs. CER-AP alone (no inhibitors). Significance was determined by 2-tailed Student's t test (A-D) or 1-way ANOVA followed by Tukey's multiple comparison test (E, F, and I). Scale bars: 10 μm.
FIGS. 20A-20C show simvastatin improves cerulein pancreatitis. Mice received daily i.p. injections of simvastatin (Sim; 20 mg/kg) or vehicle (see FIG. 10), and on day 4 were subjected to cerulein pancreatitis (CER-AP). (A) Pancreas histopathology (H&E staining; scale: 10 μm). (B) IB analysis of markers/mediators of autophagy (LC3, p62), ER stress (CHOP), and the MLN64/STARD3 protein mediating cholesterol transfer from LE/Ly to mitochondria. Each IB lane represents an individual mouse; ERK1/2 is the loading control. […] Ub, ubiquitylated proteins. (C) Pancreatitis responses. Values are mean±SEM from 7-13 mice for each condition. ***p<0.001 vs saline control. ^###p<0.001 vs CER-AP alone (no simvastatin). Significance was determined by 1-way ANOVA followed by Tukey's multiple comparisons test.
FIGS. 25A-25C show reducing cholesterol overload greatly ameliorates experimental pancreatitis. CER-AP responses were measured in (A) AclyAac or (C) WT mice treated with simvastatin or bempedoic acid (BemA). (B) Acinar cells were transfected with ACLA (or mock) siRNA and subjected to ex-vivo CCK-AP. Each symbol represents an individual mouse or cell preparation. Values are mean±SE. **p<0.01, ***p<0.001 vs saline treated control mice (or mock transfection); #p<0.05, ##p<0.01, ###p<0.001 vs CER/CCK-AP in control mice (i.e. without inhibitors) or cells.
Cerulein-induced (CER-AP) and L-arginine induced (Arg-AP) acute pancreatitis models were performed in 12-week-old C57BL/6 mice that received 7 hourly i.p. injections of 50 μg/kg cerulein or 3 hourly i.p. injections of 3.3 g/kg Arg; controls received physiologic saline injections. Mice were euthanized for analyses 7 hours after the first cerulein or 24 hours after the first Arg injection. Choline deficient, ethionine-supplemented (CDE) pancreatitis was induced in young (~5-weeks old) female mice fed either CDE or control diet. Mice were euthanized 72 hours after the diet initiation. These models have been described in detail (1-7).
12-week-old WT mice were subjected for 4 consecutive days to daily i.p. injections of 20 mg/kg simvastatin (8,9) or 20 mg/kg T0901317 (10); or 10 mg/kg U18666A for 15 days (11). […]

The mark [2] stands for this setting: CER-AP, T0901317 or simvastatin 20 mg/kg i.p. daily.

On to `CCOC(=O)[C@@]1(CCCCCCOc2ccc(Cl)cc2)CO1` [etomoxir], for which the “respiration rates, KO” value with acinar cells (Gnptab−/− (KO) acinar cells) is recorded as “not significantly reduced”. Moreover, in the assay on acinar cells (WT acinar cells), the “ATP-linked OCR, WT” value was “inhibition” and the “basal OCR, WT” value is on record as “inhibition”.

With `CCCNC(=O)[C@H]1O[C@@H]1C(=O)N[C@H](C(=O)N1CCC[C@H]1C(=O)OC)[C@@H](C)CC` [CA-074Me], the “Reduction of trypsin activity, Gnptab−/− acinar cells” value in the assay with trypsin is given as “by half”.

Take `O=S(=O)(c1ccccc1)N(CC(F)(F)F)c1ccc(C(O)(C(F)(F)F)C(F)(F)F)cc1` [T0901317]: the “total cholesterol content in pancreas, Gnptab−/− mice” value in the assay on pancreas (20 mg/kg i.p. daily for 4 or 21 days) is on record as “Neither treatment changed”. Moreover, in the assay on pancreas (even for 3 weeks), the “pancreatic total cholesterol, Gnptab−/− mice” value is on record as “failed to decrease”. For the same compound, in assay [1] (CER-AP, 20 mg/kg i.p. daily), the “CER-induced increase in MLN64” value is “abrogated”, the “accumulation of LC3-II” value is on record as “reduced”, the “accumulation of p62” value is given as “reduced” and the “accumulation of ubiquitylated proteins” value was “reduced”. Besides, the “mitochondrial fragmentation (Tom20 IF)” value in assay [1] (CER-AP, 20 mg/kg i.p. daily) is given as “normalized”. For the same compound, the CHOP levels result in assay [1] (CER-AP, 20 mg/kg i.p. daily, ER stress) is recorded as “decreased”. Further, in assay [1] (setting [2]), the “pancreatitis-induced increase in total cholesterol” value is recorded as “eliminated” and the “pancreatitis-induced increase in trypsin activity” value is “eliminated”. The “pancreas histopathology in CER-AP” value in assay [1] (H&E, 20 mg/kg i.p. daily) is “improved”. For the same compound, the “pathologic responses of experimental pancreatitis (impaired autophagy, ER stress and others)” value in assay [1] (discussion statement) is “reduced”. The “experimental pancreatitis in WT mouse and ex vivo models” value in assay [1] (overall result) is “ameliorated”.
